Values belong to the molecule of their own block, whether it stands above or below them.
Key:
Test in all cases: competitive isoTOP-ABPP
Format in all cases: binding
[1] = target: T1, GLOD4 Glyoxalase domain-containing protein 4 (Homo sapiens, UniProt Q9HC38); conditions: for isoTOP-ABPP ratio (R) at liganded lysine Q9HC38_K305: sol, 231; for R value (DMSO/fragment) for probe 1 labeling: Q9HC38_K305
T1 construct: endogenous in cells; host or cells: MDA-MB-231 (soluble fraction of lysate)
T1 sequence (Q9HC38 1-313): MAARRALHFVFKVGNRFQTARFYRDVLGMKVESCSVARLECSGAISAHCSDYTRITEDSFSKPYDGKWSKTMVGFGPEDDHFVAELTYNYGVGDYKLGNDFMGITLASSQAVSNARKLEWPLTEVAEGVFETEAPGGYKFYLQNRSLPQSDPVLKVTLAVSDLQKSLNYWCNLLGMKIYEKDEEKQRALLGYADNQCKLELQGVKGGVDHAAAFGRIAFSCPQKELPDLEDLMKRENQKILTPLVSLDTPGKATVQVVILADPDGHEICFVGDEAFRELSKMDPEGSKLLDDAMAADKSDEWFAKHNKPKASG
How it was run: (§1)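 Lysine engagement is reported as R, the MS1 peak-area ratio of heavy-tagged DMSO to light-tagged compound samples. Final fragment concentrations were 50 μM for activated esters and 100 μM for guanidinylating agents; STP-alkyne probe 0.1 mM, 1 h.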

[2] = target: T2, GOLGB1 Golgin subfamily B member 1 (Homo sapiens, UniProt Q14789); conditions: for isoTOP-ABPP ratio (R) at liganded lysine Q14789_K103: sol, 231; for R value (DMSO/fragment) for probe 1 labeling: Q14789_K103
T2 construct: isoTOP-ABPP experiments performed in cell lysates (in vitro); endogenous in cells; host or cells: soluble proteome of human cancer cell lines (MDA-MB-231, Ramos, Jurkat)
T2 sequence (Q14789 whole entry, the tested form may be a part): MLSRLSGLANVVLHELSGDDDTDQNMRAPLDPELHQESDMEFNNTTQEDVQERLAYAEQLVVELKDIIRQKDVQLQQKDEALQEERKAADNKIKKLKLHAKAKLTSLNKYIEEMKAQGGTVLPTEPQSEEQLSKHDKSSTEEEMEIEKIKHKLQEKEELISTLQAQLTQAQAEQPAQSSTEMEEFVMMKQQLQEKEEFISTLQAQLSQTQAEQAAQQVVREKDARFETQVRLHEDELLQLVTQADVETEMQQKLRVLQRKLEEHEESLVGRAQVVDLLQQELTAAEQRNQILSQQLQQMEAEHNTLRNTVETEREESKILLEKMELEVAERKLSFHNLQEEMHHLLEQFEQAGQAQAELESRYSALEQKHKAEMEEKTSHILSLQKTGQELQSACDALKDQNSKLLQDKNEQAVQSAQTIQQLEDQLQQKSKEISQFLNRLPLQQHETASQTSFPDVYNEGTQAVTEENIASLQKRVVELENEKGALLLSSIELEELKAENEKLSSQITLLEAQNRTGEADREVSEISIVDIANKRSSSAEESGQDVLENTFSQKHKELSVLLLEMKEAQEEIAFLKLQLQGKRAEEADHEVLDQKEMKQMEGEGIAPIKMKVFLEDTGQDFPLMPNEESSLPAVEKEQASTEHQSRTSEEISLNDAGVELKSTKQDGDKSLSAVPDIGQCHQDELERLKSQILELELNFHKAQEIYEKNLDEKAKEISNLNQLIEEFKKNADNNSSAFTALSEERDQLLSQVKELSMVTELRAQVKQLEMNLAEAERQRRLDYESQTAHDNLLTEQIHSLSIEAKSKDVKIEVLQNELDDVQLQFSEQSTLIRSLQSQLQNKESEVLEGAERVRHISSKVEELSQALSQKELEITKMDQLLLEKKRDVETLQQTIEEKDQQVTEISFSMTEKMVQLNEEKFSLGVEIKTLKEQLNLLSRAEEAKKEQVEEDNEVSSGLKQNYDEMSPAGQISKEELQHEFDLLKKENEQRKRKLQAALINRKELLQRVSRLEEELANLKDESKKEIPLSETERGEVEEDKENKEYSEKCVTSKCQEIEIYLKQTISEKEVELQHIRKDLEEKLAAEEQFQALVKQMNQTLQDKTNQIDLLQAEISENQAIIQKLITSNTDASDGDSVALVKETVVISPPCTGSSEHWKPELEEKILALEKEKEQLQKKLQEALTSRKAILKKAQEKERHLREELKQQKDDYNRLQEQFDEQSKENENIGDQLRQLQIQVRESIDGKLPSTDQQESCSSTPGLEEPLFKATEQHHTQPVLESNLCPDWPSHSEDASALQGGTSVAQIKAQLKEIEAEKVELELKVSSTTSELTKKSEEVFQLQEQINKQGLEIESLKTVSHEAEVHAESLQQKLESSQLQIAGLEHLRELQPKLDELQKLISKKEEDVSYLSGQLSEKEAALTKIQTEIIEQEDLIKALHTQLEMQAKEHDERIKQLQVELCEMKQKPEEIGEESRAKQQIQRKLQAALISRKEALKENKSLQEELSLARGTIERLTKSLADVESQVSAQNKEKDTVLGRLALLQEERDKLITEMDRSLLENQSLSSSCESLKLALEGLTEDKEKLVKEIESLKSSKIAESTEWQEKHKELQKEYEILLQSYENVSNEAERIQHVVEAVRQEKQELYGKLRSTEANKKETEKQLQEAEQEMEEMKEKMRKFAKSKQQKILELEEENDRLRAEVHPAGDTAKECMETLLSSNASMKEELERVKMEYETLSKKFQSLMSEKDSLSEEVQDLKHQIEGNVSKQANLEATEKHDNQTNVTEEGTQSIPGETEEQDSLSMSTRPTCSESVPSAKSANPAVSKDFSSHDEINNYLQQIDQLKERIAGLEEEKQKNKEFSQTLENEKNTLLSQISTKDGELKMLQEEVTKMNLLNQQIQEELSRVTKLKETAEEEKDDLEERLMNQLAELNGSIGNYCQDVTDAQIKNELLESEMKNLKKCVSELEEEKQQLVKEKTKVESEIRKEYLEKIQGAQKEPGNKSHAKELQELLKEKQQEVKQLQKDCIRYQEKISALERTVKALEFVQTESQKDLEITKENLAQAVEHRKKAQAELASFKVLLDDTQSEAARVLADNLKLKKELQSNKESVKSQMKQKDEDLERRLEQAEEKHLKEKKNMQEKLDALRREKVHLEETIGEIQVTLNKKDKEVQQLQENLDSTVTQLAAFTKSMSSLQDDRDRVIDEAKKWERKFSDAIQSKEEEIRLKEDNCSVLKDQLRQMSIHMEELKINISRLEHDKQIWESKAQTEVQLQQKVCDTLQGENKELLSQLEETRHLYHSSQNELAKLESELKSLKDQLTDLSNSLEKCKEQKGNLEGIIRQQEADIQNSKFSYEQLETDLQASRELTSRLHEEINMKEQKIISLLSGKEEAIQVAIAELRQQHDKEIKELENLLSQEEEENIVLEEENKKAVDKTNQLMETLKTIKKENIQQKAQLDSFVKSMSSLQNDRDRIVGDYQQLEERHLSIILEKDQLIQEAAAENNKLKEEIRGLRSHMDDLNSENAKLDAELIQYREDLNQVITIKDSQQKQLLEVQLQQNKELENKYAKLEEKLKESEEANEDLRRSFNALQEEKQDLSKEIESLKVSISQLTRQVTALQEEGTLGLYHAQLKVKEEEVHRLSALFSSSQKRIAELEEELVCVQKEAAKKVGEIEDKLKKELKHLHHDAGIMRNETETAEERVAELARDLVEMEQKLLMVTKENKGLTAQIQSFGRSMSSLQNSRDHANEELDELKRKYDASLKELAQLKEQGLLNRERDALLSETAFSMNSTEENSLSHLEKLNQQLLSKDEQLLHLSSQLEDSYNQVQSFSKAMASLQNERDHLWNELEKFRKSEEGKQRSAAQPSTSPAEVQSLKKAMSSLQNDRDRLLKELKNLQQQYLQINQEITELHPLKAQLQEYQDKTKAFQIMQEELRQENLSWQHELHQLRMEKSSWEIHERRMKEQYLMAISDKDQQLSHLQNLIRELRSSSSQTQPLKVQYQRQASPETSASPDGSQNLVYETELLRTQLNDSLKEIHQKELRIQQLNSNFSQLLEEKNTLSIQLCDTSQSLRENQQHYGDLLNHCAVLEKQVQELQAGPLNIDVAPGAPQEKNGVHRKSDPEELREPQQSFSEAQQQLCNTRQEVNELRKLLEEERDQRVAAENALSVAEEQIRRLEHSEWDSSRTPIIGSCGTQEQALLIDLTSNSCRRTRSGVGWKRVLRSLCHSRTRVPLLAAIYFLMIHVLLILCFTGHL
How it was run: as §1

[3] = target: T3, LMNA Prelamin-A/C (Homo sapiens, UniProt P02545); conditions: for isoTOP-ABPP ratio (R) at liganded lysine P02545_K135: sol, 231; for R value (DMSO/fragment) for probe 1 labeling: P02545_K135
T3 construct: isoTOP-ABPP experiments performed in cell lysates (in vitro); endogenous in cells; host or cells: MDA-MB-231 soluble lysate
T3 sequence (P02545 1-664): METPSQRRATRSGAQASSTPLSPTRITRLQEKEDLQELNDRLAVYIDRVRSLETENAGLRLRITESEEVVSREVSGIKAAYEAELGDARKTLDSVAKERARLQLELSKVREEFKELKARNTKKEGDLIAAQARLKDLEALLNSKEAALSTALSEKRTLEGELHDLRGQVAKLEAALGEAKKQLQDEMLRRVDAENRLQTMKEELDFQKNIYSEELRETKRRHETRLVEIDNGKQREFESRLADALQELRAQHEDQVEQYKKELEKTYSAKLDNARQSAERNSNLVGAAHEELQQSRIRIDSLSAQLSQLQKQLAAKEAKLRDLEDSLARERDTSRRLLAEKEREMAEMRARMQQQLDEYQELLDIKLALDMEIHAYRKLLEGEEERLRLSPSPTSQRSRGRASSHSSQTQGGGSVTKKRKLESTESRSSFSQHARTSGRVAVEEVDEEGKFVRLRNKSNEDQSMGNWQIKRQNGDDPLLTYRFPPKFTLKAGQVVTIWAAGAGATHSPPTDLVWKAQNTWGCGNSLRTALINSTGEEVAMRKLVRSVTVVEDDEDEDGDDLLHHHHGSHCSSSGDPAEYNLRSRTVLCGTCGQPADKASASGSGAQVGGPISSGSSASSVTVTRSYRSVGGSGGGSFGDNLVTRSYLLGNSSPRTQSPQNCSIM
How it was run: as §1

[4] = target: T4, OLA1 Obg-like ATPase 1 (Homo sapiens, UniProt Q9NTK5); conditions: for isoTOP-ABPP ratio (R) at liganded lysine Q9NTK5_K248: sol, 231; for R value (DMSO/fragment) for probe 1 labeling: Q9NTK5_K248
T4 construct: endogenous in cells; host or cells: MDA-MB-231 (soluble fraction of lysate)
How it was run: as §1

SMILES: O=C(Oc1ccc([N+](=O)[O-])cc1[N+](=O)[O-])C(c1ccccc1)(c1ccccc1)c1ccccc1 [fragment 42, 2,4-Dinitrophenyl 2,2,2-triphenylacetate]
isoTOP-ABPP ratio (R) at liganded lysine Q9HC38_K305 ([1]; 50 uM, in vitro): 0.9
isoTOP-ABPP ratio (R) at liganded lysine Q14789_K103 ([2]; 50 uM, in vitro): 0.9
isoTOP-ABPP ratio (R) at liganded lysine P02545_K135 ([3]; 50 uM, in vitro): 1.0
isoTOP-ABPP ratio (R) at liganded lysine Q9NTK5_K248 ([4]; 50 uM, in vitro): 1.0

SMILES: O=C(Oc1c(F)c(F)c(F)c(F)c1F)c1cc(C(F)(F)F)cc(C(F)(F)F)c1 [fragment 21, Pentafluorophenyl 3,5-bis(trifluoromethyl)benzoate]
R value (DMSO/fragment) for probe 1 labeling ([1]; 50 uM, 231 sol, in vitro): 0.8
R value (DMSO/fragment) for probe 1 labeling ([2]; 50 uM, 231 sol, in vitro): 1.0
R value (DMSO/fragment) for probe 1 labeling ([3]; 50 uM, 231 sol, in vitro): 1.0
R value (DMSO/fragment) for probe 1 labeling ([4]; 50 uM, 231 sol, in vitro): 1.0

SMILES: O=C(CCc1cn(-c2ccccc2)nc1-c1ccccc1)Oc1ccc([N+](=O)[O-])cc1[N+](=O)[O-] [fragment 29, 2,4-Dinitrophenyl 3-(1,3-diphenyl-1H-pyrazol-4-yl)propanoate]
isoTOP-ABPP reactivity ratio at lysine Q9HC38_K305 ([1]; 50 uM, 231 sol, in vitro): 0.9
isoTOP-ABPP reactivity ratio at lysine Q14789_K103 ([2]; 50 uM, 231 sol, in vitro): 1.1
isoTOP-ABPP reactivity ratio at lysine P02545_K135 ([3]; 50 uM, 231 sol, in vitro): 1.0
isoTOP-ABPP reactivity ratio at lysine Q9NTK5_K248 ([4]; 50 uM, 231 sol, in vitro): 0.9

SMILES: N#Cc1ccc(C(=O)Oc2ccc([N+](=O)[O-])cc2[N+](=O)[O-])cc1 [fragment 44, 2,4-Dinitrophenyl 4-cyanobenzoate]
isoTOP-ABPP ratio, lysine Q9HC38_K305 ([1]; 50 uM_231_sol_in vitro): 0.5
isoTOP-ABPP ratio, lysine Q14789_K103 ([2]; 50 uM_231_sol_in vitro): 0.9
isoTOP-ABPP ratio, lysine P02545_K135 ([3]; 50 uM_231_sol_in vitro): 0.9
isoTOP-ABPP ratio, lysine Q9NTK5_K248 ([4]; 50 uM_231_sol_in vitro): 1.1

SMILES: O=C(Oc1ccc([N+](=O)[O-])cc1[N+](=O)[O-])C1CCN(C(=O)OCc2ccccc2)CC1 [fragment 34, 1-Benzyl 4-(2,4-dinitrophenyl) piperidine-1,4-dicarboxylate]
isoTOP-ABPP ratio (R) at liganded lysine Q9HC38_K305 ([1]; 50 uM, in vitro): 20.0
isoTOP-ABPP ratio (R) at liganded lysine Q14789_K103 ([2]; 50 uM, in vitro): 0.9
isoTOP-ABPP ratio (R) at liganded lysine P02545_K135 ([3]; 50 uM, in vitro): 1.2
isoTOP-ABPP ratio (R) at liganded lysine Q9NTK5_K248 ([4]; 50 uM, in vitro): 0.9

SMILES: O=C(CC12CC3CC(CC(C3)C1)C2)Oc1ccc([N+](=O)[O-])cc1[N+](=O)[O-] [fragment 38, 2,4-Dinitrophenyl 2-(adamantan-1-yl)acetate]
isoTOP-ABPP ratio (R) at liganded lysine Q9HC38_K305 ([1]; 50 uM, in vitro): 20.0
isoTOP-ABPP ratio (R) at liganded lysine Q14789_K103 ([2]; 50 uM, in vitro): 0.9
isoTOP-ABPP ratio (R) at liganded lysine P02545_K135 ([3]; 50 uM, in vitro): 0.8
isoTOP-ABPP ratio (R) at liganded lysine Q9NTK5_K248 ([4]; 50 uM, in vitro): 0.9

SMILES: O=C(CCc1cn(-c2ccccc2)nc1-c1ccccc1)Oc1c(F)c(F)c(F)c(F)c1F [fragment 19, Pentafluorophenyl 3-(1,3-diphenyl-1H-pyrazol-4-yl)propanoate]
R value (DMSO/fragment) for probe 1 labeling ([1]; 50 uM, 231 sol, in vitro): 0.9
R value (DMSO/fragment) for probe 1 labeling ([2]; 50 uM, 231 sol, in vitro): 0.9
R value (DMSO/fragment) for probe 1 labeling ([3]; 50 uM, 231 sol, in vitro): 1.1
R value (DMSO/fragment) for probe 1 labeling ([4]; 50 uM, 231 sol, in vitro): 1.0

Continued, values first:

isoTOP-ABPP ratio, lysine Q9HC38_K305 ([1]; 50 uM_231_sol_in vitro): 0.9
isoTOP-ABPP ratio, lysine Q14789_K103 ([2]; 50 uM_231_sol_in vitro): 0.9
isoTOP-ABPP ratio, lysine P02545_K135 ([3]; 50 uM_231_sol_in vitro): 1.0
isoTOP-ABPP ratio, lysine Q9NTK5_K248 ([4]; 50 uM_231_sol_in vitro): 0.9
SMILES: NC(=O)c1cc(C(F)(F)F)cc(C(F)(F)F)c1 [fragment 51, reference compound]

isoTOP-ABPP ratio, lysine Q9HC38_K305 ([1]; 100 uM_231_sol_in vitro): 1.1
isoTOP-ABPP ratio, lysine Q14789_K103 ([2]; 100 uM_231_sol_in vitro): 1.4
isoTOP-ABPP ratio, lysine P02545_K135 ([3]; 100 uM_231_sol_in vitro): 1.3
isoTOP-ABPP ratio, lysine Q9NTK5_K248 ([4]; 100 uM_231_sol_in vitro): 2.1
SMILES: CC(C)(C)OC(=O)N=C(NC(=O)OC(C)(C)C)n1cccn1 [fragment 50, reference compound]

isoTOP-ABPP ratio, lysine Q9HC38_K305 ([1]; 100 uM_231_sol_in vitro): 1.2
isoTOP-ABPP ratio, lysine Q14789_K103 ([2]; 100 uM_231_sol_in vitro): 1.8
isoTOP-ABPP ratio, lysine P02545_K135 ([3]; 100 uM_231_sol_in vitro): 1.1
isoTOP-ABPP ratio, lysine Q9NTK5_K248 ([4]; 100 uM_231_sol_in vitro): 7.0
SMILES: COC(=O)NC(=NC(=O)OCC1c2ccccc2-c2ccccc21)n1cccn1 [fragment 49, N-Methoxycarbonyl-N′-9-fluorenylmethoxycarbonyl-pyrazole-1-carboxamidine]

Source: US20210255193A1, “LYSINE REACTIVE PROBES AND USES THEREOF” (The Scripps Research Institute, priority 2017, published 2021)
